The values that follow come from patent US20140148443A1, “Novel Imidazolines as dual inhibitors of MDM2 and MDMX” (priority 2012, published 2014).

In one experiment the target is T1, GST-tagged MDMX (Homo sapiens, UniProt O15151).
T1 sequence (O15151 1-490): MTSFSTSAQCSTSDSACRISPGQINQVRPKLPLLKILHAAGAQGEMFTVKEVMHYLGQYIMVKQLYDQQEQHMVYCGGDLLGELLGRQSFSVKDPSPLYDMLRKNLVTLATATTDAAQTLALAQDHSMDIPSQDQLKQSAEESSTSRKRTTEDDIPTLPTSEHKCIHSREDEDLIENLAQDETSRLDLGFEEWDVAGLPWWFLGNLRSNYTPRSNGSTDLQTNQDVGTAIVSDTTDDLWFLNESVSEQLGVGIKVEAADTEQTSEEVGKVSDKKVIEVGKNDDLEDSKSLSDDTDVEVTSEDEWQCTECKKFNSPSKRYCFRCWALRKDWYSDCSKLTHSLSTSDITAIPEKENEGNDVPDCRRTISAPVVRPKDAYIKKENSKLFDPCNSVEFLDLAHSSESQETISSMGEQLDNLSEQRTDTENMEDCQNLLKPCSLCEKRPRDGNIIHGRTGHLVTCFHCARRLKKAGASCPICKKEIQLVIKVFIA
Description: HTRF binding assay of GST-tagged MDMX to p53 peptide. (In general: TR-FRET usually uses a lanthanide donor and a delayed reading to cut background.)

In experiment [1] the target is recombinant GST-tagged MDM2 (Homo sapiens, UniProt Q00987). Put plainly: HTRF assay of interaction between p53 peptide and GST-tagged MDM2. The conditions noted are these: inhibition of GST-MDM2 (160 ng/ml) binding to biotinylated p53-peptide. Here is the method:
The ability of a test compound to inhibit the interaction between p53 and MDM2 protein was measured by an HTRF (homogeneous time-resolved fluorescence) assay in which recombinant GST-tagged MDM2 binds to a peptide that resembles the MDM2-interacting region of p53 Aca-[…]-OH hereinafter p53-peptide). Binding of GST-MDM2 protein and p53-peptide (biotinylated on its N-terminal end) is registered by the FRET (fluorescence resonance energy transfer) between Europium (Eu)-labeled anti-GST antibody and streptavidin-conjugated Allophycocyanin (APC).
The test was performed in black flat-bottom 384-well plates (Costar) in a total volume of 40 uL containing: 90 nM biotinylated peptide, 160 ng/ml GST-MDM2, 20 nM streptavidin-APC (PerkinElmerWallac), 2 nM Eu-labeled anti-GST-antibody (PerkinElmerWallac), 0.02% bovine serum albumin (BSA), 1 mM dithiothreitol (DTT) and 20 mM […] (TBS) buffer as follows: add 10 uL of GST-MDM2 (640 ng/ml working solution) in reaction buffer to each well. Add 10 uL diluted compounds (1:5 dilution in reaction buffer) to each well, mix by shaking. Add 20 uL biotinylated p53 peptide (180 nM working solution) in reaction buffer to each well and mix on shaker. Incubate at 37° C. for 1 h. Add […] streptavidin-APC and Eu-anti-GST antibody mixture (6 nM Eu-anti-GST and 60 nM streptavidin-APC working solution) in TBS buffer with 0.02% BSA, shake at room temperature for 30 minutes and read using a TRF-capable plate reader at 665 and 615 nm (Victor 5, Perkin ElmerWallac). If not specified, the reagents were purchased from Sigma Chemical Co.

Each structure is given as a SMILES string. Structures can show the parent of a compound that is named as a salt.

recombinant GST-tagged MDM2, sequence (Q00987 whole entry): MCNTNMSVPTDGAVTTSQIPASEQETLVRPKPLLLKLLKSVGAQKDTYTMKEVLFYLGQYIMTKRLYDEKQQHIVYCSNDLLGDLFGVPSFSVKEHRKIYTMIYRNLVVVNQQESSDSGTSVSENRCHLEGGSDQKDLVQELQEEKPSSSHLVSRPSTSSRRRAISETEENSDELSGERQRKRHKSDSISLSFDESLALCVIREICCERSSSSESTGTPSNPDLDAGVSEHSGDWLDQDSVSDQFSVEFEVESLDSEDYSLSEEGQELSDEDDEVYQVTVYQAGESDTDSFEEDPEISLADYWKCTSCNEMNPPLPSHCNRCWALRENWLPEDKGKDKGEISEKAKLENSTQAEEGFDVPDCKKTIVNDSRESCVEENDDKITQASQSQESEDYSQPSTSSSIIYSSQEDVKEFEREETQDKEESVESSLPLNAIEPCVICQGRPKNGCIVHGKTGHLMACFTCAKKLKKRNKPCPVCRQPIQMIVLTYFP

Regarding `CCOc1cc(Cl)c(S(C)(=O)=O)cc1C1=N[C@@](C)(c2ccc(Cl)cc2)[C@@](C)(c2ccc(Cl)cc2)N1C(=O)N1CCC(NC(=O)N2CCCC2)CC1` [Example 30, Pyrrolidine-1-carboxylic acid {1-[(4S,5R)-2-(4-chloro-2-ethoxy-5-methanesulfonyl-phenyl)-4,5-bis-(4-chloro-phenyl)-4,5-dimethyl-4,5-dihydro-imidazole-1-carbonyl]-piperidin-4-yl}-amide], the IC50 on GST-tagged MDMX was determined as 3350 nM; in experiment [1], 12.7 nM.

With `CCOc1cc(Cl)c(S(C)(=O)=O)cc1C1=N[C@@](C)(c2ccc(Cl)cc2)[C@@](C)(c2ccc(Cl)cc2)N1C(=O)N1CCC(NC(=O)NC2CCCC2)CC1` [Example 31, 1-{1-[(4S,5R)-2-(4-Chloro-2-ethoxy-5-methanesulfonyl-phenyl)-4,5-bis-(4-chloro-phenyl)-4,5-dimethyl-4,5-dihydro-imidazole-1-carbonyl]-piperidin-4-yl}-3-cyclopentyl-urea], the concentration for half-maximal inhibition (IC50) at GST-tagged MDMX is 1590 nM; in experiment [1] it was 5.3 nM.

For `CCOc1cc(Cl)c(S(C)(=O)=O)cc1C1=N[C@@](C)(c2ccc(Cl)cc2)[C@@](C)(c2ccc(Cl)cc2)N1C(=O)N1CCC(NC(N)=O)CC1` [Example 32, {1-[(4S,5R)-2-(4-Chloro-2-ethoxy-5-methanesulfonyl-phenyl)-4,5-bis-(4-chloro-phenyl)-4,5-dimethyl-4,5-dihydro-imidazole-1-carbonyl]-piperidin-4-yl}-urea], the values for the IC50 (on GST-tagged MDMX; in experiment [1]) were 1460 nM and 5.2 nM, respectively.

In the case of `CCOc1cc(Cl)c(S(C)(=O)=O)cc1C1=N[C@@](C)(c2ccc(Cl)cc2)[C@@](C)(c2ccc(Cl)cc2)N1C(=O)N1CCC(NS(C)(=O)=O)CC1` [Example 33, N-{1-[(4S,5R)-2-(4-Chloro-2-ethoxy-5-methanesulfonyl-phenyl)-4,5-bis-(4-chloro-phenyl)-4,5-dimethyl-4,5-dihydro-imidazole-1-carbonyl]-piperidin-4-yl}-methanesulfonamide], the IC50 was 1120 nM at GST-tagged MDMX and 5.3 nM in experiment [1].

On to `CCOc1cc(Cl)c(S(C)(=O)=O)cc1C1=N[C@@](C)(c2ccc(Cl)cc2)[C@@](C)(c2ccc(Cl)cc2)N1C(=O)N1CCC(NC(=O)NC2CCS(=O)(=O)C2)CC1` (stereo partly drawn) [Example 34, 1-{1-[(4S,5R)-2-(4-Chloro-2-ethoxy-5-methanesulfonyl-phenyl)-4,5-bis-(4-chloro-phenyl)-4,5-dimethyl-4,5-dihydro-imidazole-1-carbonyl]-piperidin-4-yl}-3-(1,1-dioxo-tetrahydro-1λ6-thiophen-3-yl)-urea], for which the IC50 at GST-tagged MDMX was 1350 nM; in experiment [1] it was 6.3 nM.

For the molecule `CCOc1cc(Cl)c(S(C)(=O)=O)cc1C1=N[C@@](C)(c2ccc(Cl)cc2)[C@@](C)(c2ccc(Cl)cc2)N1C(=O)N1CCN(CC(=O)O)CC1` [Example 35, {4-[(4S,5R)-2-(4-Chloro-2-ethoxy-5-methanesulfonyl-phenyl)-4,5-bis-(4-chloro-phenyl)-4,5-dimethyl-4,5-dihydro-imidazole-1-carbonyl]-piperazin-1-yl}-acetic acid, hydrochloride], the IC50 came out at 2860 nM at GST-tagged MDMX and 6.7 nM in experiment [1].

In the case of `CCOc1cc(Cl)c(S(C)(=O)=O)cc1C1=N[C@@](C)(c2ccc(Cl)cc2)[C@@](C)(c2ccc(Cl)cc2)N1C(=O)N1CCC(NC(C)=O)CC1` [Example 36, N-{1-[(4S,5R)-2-(4-Chloro-2-ethoxy-5-methanesulfonyl-phenyl)-4,5-bis-(4-chloro-phenyl)-4,5-dimethyl-4,5-dihydro-imidazole-1-carbonyl]-piperidin-4-yl}-acetamide], the values for the IC50 (on GST-tagged MDMX; in experiment [1]) were 1270 nM and 4.8 nM, respectively.

`CCOc1cc(Cl)c(S(C)(=O)=O)cc1C1=N[C@@](C)(c2ccc(Cl)cc2)[C@@](C)(c2ccc(Cl)cc2)N1C(=O)N1CCC(N(C)CCCN(C)C)C1` (stereo partly drawn) [Example 37, [(4S,5R)-2-(4-Chloro-2-ethoxy-5-methanesulfonyl-phenyl)-4,5-bis-(4-chloro-phenyl)-4,5-dimethyl-4,5-dihydro-imidazol-1-yl]-{3-[(3-dimethylamino-propyl)-methyl-amino]-pyrrolidin-1-yl}-methanone]: the values for the IC50 (on GST-tagged MDMX; in experiment [1]) were 3910 nM and 6.1 nM, respectively.

Turning to `CCOc1cc(Cl)c(S(C)(=O)=O)cc1C1=N[C@@](C)(c2ccc(Cl)cc2)[C@@](C)(c2ccc(Cl)cc2)N1C(=O)N1CCC(O)CC1` [Example 38, [(4S,5R)-2-(4-Chloro-2-ethoxy-5-methanesulfonyl-phenyl)-4,5-bis-(4-chloro-phenyl)-4,5-dimethyl-4,5-dihydro-imidazol-1-yl]-(4-hydroxy-piperidin-1-yl)-methanone], the concentration for half-maximal inhibition (IC50) was 2890 nM at GST-tagged MDMX and 8.4 nM in experiment [1].

For the molecule `CCOc1cc(Cl)c(S(C)(=O)=O)cc1C1=N[C@@](C)(c2ccc(Cl)cc2)[C@@](C)(c2ccc(Cl)cc2)N1C(=O)N1CCC(CC(N)=O)CC1` [Example 39, 2-{1-[(4S,5R)-2-(4-Chloro-2-ethoxy-5-methanesulfonyl-phenyl)-4,5-bis-(4-chloro-phenyl)-4,5-dimethyl-4,5-dihydro-imidazole-1-carbonyl]-piperidin-4-yl}-acetamide], the results for the IC50 (on GST-tagged MDMX; in experiment [1]) were 1030 nM and 6.1 nM, respectively.

In the case of `CC(C)Oc1cc(Cl)c(S(C)(=O)=O)cc1C1=N[C@@](C)(c2ccc(Cl)cc2)[C@@](C)(c2ccc(Cl)cc2)N1C(=O)N1CCN(CCCS(C)(=O)=O)CC1` [Example 40, [(4S,5R)-2-(4-Chloro-2-isopropoxy-5-methanesulfonyl-phenyl)-4,5-bis-(4-chloro-phenyl)-4,5-dimethyl-4,5-dihydro-imidazol-1-yl]-[4-(3-methanesulfonyl-propyl)-piperazin-1-yl]-methanone], the IC50 at GST-tagged MDMX is 290 nM; in experiment [1], 6.1 nM.

As for `CC(C)Oc1cc(Cl)c(S(C)(=O)=O)cc1C1=N[C@@](C)(c2ccc(Cl)cc2)[C@@](C)(c2ccc(Cl)cc2)N1C(=O)N1CCC(CC(N)=O)CC1` [Example 41, 2-{1-[(4S,5R)-2-(4-Chloro-2-isopropoxy-5-methanesulfonyl-phenyl)-4,5-bis-(4-chloro-phenyl)-4,5-dimethyl-4,5-dihydro-imidazole-1-carbonyl]-piperidin-4-yl}-acetamide], the IC50 is 170 nM on GST-tagged MDMX and 6.9 nM in experiment [1].

Consider `C[C@@]1(c2ccc(Cl)cc2)N=C(c2cc(S(C)(=O)=O)c(Cl)cc2OCC2CC2)N(C(=O)N2CCN(CCCS(C)(=O)=O)CC2)[C@]1(C)c1ccc(Cl)cc1` [Example 42, [(4S,5R)-2-(4-Chloro-2-cyclopropylmethoxy-5-methanesulfonyl-phenyl)-4,5-bis-(4-chloro-phenyl)-4,5-dimethyl-4,5-dihydro-imidazol-1-yl]-[4-(3-methanesulfonyl-propyl)-piperazin-1-yl]-methanone], for which the IC50 was determined as 6630 nM at GST-tagged MDMX and 12.5 nM in experiment [1].

Take `C[C@@]1(c2ccc(Cl)cc2)N=C(c2cc(S(C)(=O)=O)c(Cl)cc2OCCF)N(C(=O)N2CCN(CCCS(C)(=O)=O)CC2)[C@]1(C)c1ccc(Cl)cc1` [Example 43, [(4S,5R)-2-[4-Chloro-2-(2-fluoro-ethoxy)-5-methanesulfonyl-phenyl]-4,5-bis-(4-chloro-phenyl)-4,5-dimethyl-4,5-dihydro-imidazol-1-yl]-[4-(3-methanesulfonyl-propyl)-piperazin-1-yl]-methanone]: the values for the IC50 (at GST-tagged MDMX; in experiment [1]) were 1380 nM and 9.7 nM, respectively.

On to `CCC(C)Oc1cc(Cl)c(S(C)(=O)=O)cc1C1=N[C@@](C)(c2ccc(Cl)cc2)[C@@](C)(c2ccc(Cl)cc2)N1C(=O)N1CCN(CCCS(C)(=O)=O)CC1` (stereo partly drawn) [Example 44, [(4S,5R)-2-(2-sec-Butoxy-4-chloro-5-methanesulfonyl-phenyl)-4,5-bis-(4-chloro-phenyl)-4,5-dimethyl-4,5-dihydro-imidazol-1-yl]-[4-(3-methanesulfonyl-propyl)-piperazin-1-yl]-methanone], for which the IC50 at GST-tagged MDMX is 1530 nM; in experiment [1], 13.9 nM.

For orientation: IC50 means the concentration that gives 50% inhibition.
